In patent US10538561B2, “Peptide for treating inflammatory diseases” (priority 2015, dated 2020):
Where a name gives a salt, the structure may show the parent alone. Marks after values point to notes of the source that are not given here.

How the values were obtained:
[1] = test system: Human Keratinocytes (HaCaT); experiment: Cell viability (MTT assay) in HaCaT; format: cell-based; conditions: human
Method: (§1) Cell Lines/Cells: Human Keratinocytes (HaCaT); Human melanoma (SK-MEL-28); Human PBMCs. Test Item: IS181 Treatment regimen: Single addition—24 h, ^#Multiple additions (3)−72 h; Concentration range: 1 ng/ml-2 mg/ml (triplicate wells); Sera Condition: […] Method of estimation: MTT assay. […] Positive control: Triton-X-100, Doxorubicin Hydrochloride.

[2] = test system: Human melanoma (SK-MEL-28); experiment: Cell viability (MTT assay) in SK-MEL-28; format: cell-based; conditions: human
Method: as §1

[3] = test system: HaCaT (Human keratinocyte) cell line; experiment: Mitochondrial membrane potential by JC-1 assay; format: cell-based
Method: (§2) For testing Apoptosis the Human Keratinocytes (HaCaT) cell line has been employed. The growth conditions are DMEM containing 1% FBS. […] Test concentration range is IS181 is tested at the highest (Qualitative analysis) effective concentrations selected on the basis of Quantitative JC-1 assay. The method of estimation is Mitochondrial membrane depolarization by JC-1 assay (Early apoptosis), LDH enzyme release (Necrosis). Treatment regimen & time points are JC-1 assay—Single addition, 20 h; LDH assay—Single addition, 24 h; Positive control: Triton-X-100, Doxorubicin-hydrochloride
Quantitative effect on Δψm (Red fluorescence/Green fluorescence) in HaCaT cells post 20 hours of treatment. […] Evaluation (Qualitative and quantitative) of differential JC-1 staining in treated cells after 20 h on incubation with the test peptides.

[4] = test system: HaCaT (Human keratinocyte); experiment: LDH enzyme release assay; format: cell-based
Method: as §2
End-point: Percentage increase in LDH activity in treated cells with respect to untreated.

VEGF = VEGF inhibition in keratinocytes (ELISA); format: cell-based, Human; conditions: HaCaT, 24 h
Method: Cell lines: Human Keratinocytes (HaCaT); test item: IS181; treatment regimen: single addition—24 hours; concentration range: 0.1 μg/ml-100 μg/ml. […] Cells were serum-starved for another 24 hours (0% FBS). Cells were treated with IS181 for 24 hours. Supernatants were collected and stored at −20° C. till analysed. Levels of VEGF were analysed in supernatants by ELISA. Percent inhibition of VEGF secretion was calculated with reference to untreated levels. Positive control: curcumin; retinoic acid (at non-cytotoxic concentrations).

Which results are given for `COc1cccc2c1C(=O)c1c(O)c3c(c(O)c1C2=O)C[C@@](O)(C(=O)CO)C[C@@H]3O[C@H]1C[C@H](N)[C@H](O)[C@H](C)O1` [Doxorubicin, Doxorubicin Hydrochloride, reference compound]?
cytotoxicity ([1]; 24 h): up to 48%; cytotoxicity ([1]; 72 h): > 88%; cytotoxicity [2]: up to 40%; Green fluorescence intensity (RFU) ([3]; 0.1 μM): 11.5 ± 0.71 RFU; Red fluorescence intensity (RFU) ([3]; 0.1 μM): ^#106.17 ± 15.32 ^ RFU; Red fluorescence intensity/Green fluorescence intensity ([3]; 0.1 μM): 9.23; Green fluorescence intensity (RFU) ([3]; 1 μM): 11.5 ± 0.71 RFU; Red fluorescence intensity (RFU) ([3]; 1 μM): 93.25 ± 22.98 RFU; Red fluorescence intensity/Green fluorescence intensity ([3]; 1 μM): 8.11; Green fluorescence intensity (RFU) ([3]; 10 μM): 9.83 ± 4.48 RFU; Red fluorescence intensity (RFU) ([3]; 10 μM): 49.83 ± 1.65 RFU; Red fluorescence intensity/Green fluorescence intensity ([3]; 10 μM): 5.07; % Increase with respect to untreated (LDH) ([4]; 0.1 μM): −4.78%; LDH Activity (mU/ml) ([4]; 0.1 μM): 60.23 mU/ml; % Increase with respect to untreated (LDH) ([4]; 1 μM): −16.43%; LDH Activity (mU/ml) ([4]; 1 μM): 52.87 mU/ml; % Increase with respect to untreated (LDH) ([4]; 10 μM): ***125.92%; LDH Activity (mU/ml) ([4]; 10 μM): 142.92 mU/ml

How did the “Conc. of VEGF (pg/ml)” value (VEGF; RA 1 μM) turn out when `CC1=C(/C=C/C(C)=C/C=C/C(C)=C/C(=O)O)C(C)(C)CCC1` [RA, retinoic acid, reference compound] was run?
The value was 2775.1* pg/ml.

What about the “Conc. of VEGF” value (VEGF; RA 10 μM) of the same compound?
Its value is 2982.4 pg/mL.

What about the inhibition at 1 µM (VEGF; Homo sapiens, RA 1 μM, read-out: % Inhibition of VEGF wrt untreated (basal) levels) of the same compound?
Its inhibition at 1 µM is 22.8%.

And the inhibition at 10 µM (VEGF; Homo sapiens, RA 10 μM, read-out: % Inhibition of VEGF wrt untreated (basal) levels)?
The inhibition at 10 µM was 17%.
